Source: US11891397B1, “Pyrido[4′,3′:4,5]pyrrolo[3,2-c][1,7]naphthyridin-10-one compounds as CK2 inhibitors” (KING FAISAL UNIVERSITY, priority 2023, dated 2024)

Key:
PC3 (prostate) = experiment: In vitro cytotoxic activity MTT assay, PC3; assay type: cell-based; conditions: Homo sapiens, 96 hours exposure, read-out: IC50, 50% inhibition of cell proliferation
Procedure: (§1) Compounds 1-16 were screened for their in vitro cytotoxic activity utilizing a 3-(4,5-dimethyl-thiazol-2-yl)-2,5-diphenyltetrazolium bromide (MTT) assay against selected cancer human cell lines consisting of PC3 (prostate), HCT116 (colon), A375 (melanoma), H1299 (lung), MIAPaCa-2 (pancreas), HL60 (leukemia), MCF7 (breast), MDA-MB-231 (breast) (T. Mosmann, J. Immunol. Meth., 1983, 65, 55-63). The cells were cultured at 37° C. in RMPI1640 medium supplemented with 10% fetal bovine serum, 50 IU/mL penicillin, and 50 μg/mL streptomycin in a 5% CO2 incubator. All cells were sub-cultured 3 times/week by trypsinisation. Viable cells were seeded and allowed to adhere for 12 h before a test drug was added in 96-well plates at an initial density of 1.0×10^5 cells/mL. Tumour cell lines were separately exposed to various concentrations of the tested compounds followed by incubation at a temperature of 37° C. during 96 h inside a medium of fresh RMPI 1640. Cells were subsequently incubated at 37° C. using MTT at 0.5 mg/mL during 4 h. After removal of supernatant, formazan crystals were dissolved in isopropanol and the optical density was measured at 570 nm. CX-4945 was used as a positive control.

HCT116 (colon) = experiment: In vitro cytotoxic activity MTT assay, HCT116; assay type: cell-based; conditions: Homo sapiens, HCT-116, 96 hours exposure, read-out: IC50, 50% inhibition of cell proliferation
Procedure: as §1

A375 (melanoma) = experiment: In vitro cytotoxic activity MTT assay, A375; assay type: cell-based; conditions: Homo sapiens, A-375, 96 hours exposure, read-out: IC50, 50% inhibition of cell proliferation
Procedure: as §1

H1299 (lung) = experiment: In vitro cytotoxic activity MTT assay, H1299; assay type: cell-based; conditions: Homo sapiens, NCI-H1299, 96 hours exposure, read-out: IC50, 50% inhibition of cell proliferation
Procedure: as §1

MIAPaCa-2 (pancreas) = experiment: In vitro cytotoxic activity MTT assay, MIAPaCa-2; assay type: cell-based; conditions: Homo sapiens, MIA PaCa-2, 96 hours exposure, read-out: IC50, 50% inhibition of cell proliferation
Procedure: as §1

HL60 (leukemia) = experiment: In vitro cytotoxic activity MTT assay, HL60; assay type: cell-based; conditions: Homo sapiens, HL-60, 96 hours exposure, read-out: IC50, 50% inhibition of cell proliferation
Procedure: as §1

MCF7 (breast) = experiment: In vitro cytotoxic activity MTT assay, MCF7; assay type: cell-based; conditions: Homo sapiens, 96 hours exposure, read-out: IC50, 50% inhibition of cell proliferation
Procedure: as §1

MDA-MB-231 (breast) = experiment: In vitro cytotoxic activity MTT assay, MDA-MB-231; assay type: cell-based; conditions: Homo sapiens, 96 hours exposure, read-out: IC50, 50% inhibition of cell proliferation
Procedure: as §1

recombinant human CK2 = molecular target: T1, recombinant human CK2 (Homo sapiens, UniProt P68400); experiment: CK2 Kinase Assay (33P-ATP filter plate); assay type: biochemical; conditions: final ATP concentration 15 μM, 10 min at 30° C; read-out: protein kinase CK2 IC50
T1 construct: purchased Millipore
Procedure: CK2 Kinase Assay was conducted using the protocol as described in Pierre F. et al; J. Med. Chem. 2011, 54, 635-654. The tested compounds in aqueous solution were added at a volume of 10 μL to a reaction mixture comprising 10 μL of assay dilution buffer (ADB; 20 mM MOPS, pH 7.2, 25 mM β-glycerol phosphate, 5 mM EGTA, 1 mM sodium orthovanadate, and 1 mM dithiothreitol), 10 μL of substrate peptide (RRRDDDSDDD, dissolved in ADB at a concentration of 1 mM), 10 μL of recombinant human CK2 (RROP-holoenzyme, 25 ng dissolved in ADB; Millipore). Reactions were initiated by the addition of 10 μL of ATP solution (90% 75 mMMgCl2, 75 μM ATP (final ATP concentration:15 μM) dissolved in ADB; 10% [γ-33P] ATP (stock 1 mCi/100 μL; 3000 Ci/mmol (Perkin-Elmer) and maintained for 10 min at 30° C. The reactions were quenched with 100 μL of 0.75% phosphoric acid and then transferred to and filtered through a phosphor cellulose filter plate (Millipore). After washing each well five times with 0.75% phosphoric acid, the plate was dried under vacuum for 5 min and, following the addition of 15 μL of scintillation fluid to each well, the residual radioactivity was measured using a Wallac luminescence counter. The IC50 values were derived from eight concentrations of test inhibitors.

T1 sequence (P68400 whole entry): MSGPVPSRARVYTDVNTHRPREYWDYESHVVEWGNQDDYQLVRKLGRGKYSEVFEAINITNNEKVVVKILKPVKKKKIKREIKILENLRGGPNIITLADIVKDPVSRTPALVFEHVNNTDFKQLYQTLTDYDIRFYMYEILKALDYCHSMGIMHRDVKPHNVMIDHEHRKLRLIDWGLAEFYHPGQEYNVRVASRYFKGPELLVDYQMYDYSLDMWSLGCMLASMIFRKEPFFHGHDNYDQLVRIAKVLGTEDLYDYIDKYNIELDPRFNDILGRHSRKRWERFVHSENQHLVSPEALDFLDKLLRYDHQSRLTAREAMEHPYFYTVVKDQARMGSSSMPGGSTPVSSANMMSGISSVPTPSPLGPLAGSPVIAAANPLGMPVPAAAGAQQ
T1 sequence (P67870 whole entry partner): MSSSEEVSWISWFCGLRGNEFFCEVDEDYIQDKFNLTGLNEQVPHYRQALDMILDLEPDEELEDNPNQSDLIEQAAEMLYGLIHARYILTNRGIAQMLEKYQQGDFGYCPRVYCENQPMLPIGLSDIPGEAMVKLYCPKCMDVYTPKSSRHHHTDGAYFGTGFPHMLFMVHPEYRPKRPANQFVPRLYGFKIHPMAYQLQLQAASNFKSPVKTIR

Q: With O=c1[nH]ccc2c1[nH]c1c3ccncc3nc(Nc3cccc(Cl)c3)c21 [Compound 1, 6-((3-chlorophenyl)amino)-9,11-dihydro-10H-pyrido[4′,3′:4,5]pyrrolo[3,2-c][1,7]naphthyridin-10-one] as the molecule, how does the IC50 (PC3 (prostate)) read?
A: 1800 nM

Q: What about the IC50 (HCT116 (colon)) of the same molecule?
A: 2100 nM

Q: And the IC50 (A375 (melanoma))?
A: 3900 nM

Q: And the IC50 (H1299 (lung))?
A: 2700 nM

Q: What about the IC50 (MIAPaCa-2 (pancreas)) of the same molecule?
A: 1200 nM

Q: And the IC50 (HL60 (leukemia))?
A: 4600 nM

Q: And the IC50 (MCF7 (breast))?
A: 5400 nM

Q: And the IC50 (MDA-MB-231 (breast))?
A: 4000 nM

Q: And the IC50 (recombinant human CK2)?
A: 45 nM
